Read-outs that look alike come from different tables or passages of the source. Where only a bound is given, the exact number is not on record here.

One assay concerns the target T1, FAK (Homo sapiens, UniProt Q05397).
T1 construct: endogenous in cells; host or cells: U87MG glioblastoma cells (ATCC HTB-14)
The assay can be described thus: Cell-based capture ELISA for inhibition of FAK autophosphorylation [pY397] in U87MG cells. The method, then:
Cell-Based Assays for Inhibition of FAK Autophosphorylation: MiaPaCa2 and U87MG
The ability of compounds to inhibit FAK autophosphorylation was determined in a cell-based capture ELISA assay using U87MG glioblastoma cells (ATCC, Cat # HTB-14) and the FAK [pY397]ELISA kit from Invitrogen (KHO0441). The assay determines the ability of compounds to block endogenous autophosphorylation of FAK stimulated by fibronectin. Cells plated on fibronectin coated 96-well plate were incubated with compounds at various concentrations in the complete growth medium for 2 h. Cell lysates were then prepared and FAK protein was captured onto a FAK antibody-coated 96-well ELISA plate. The phosphotyrosine content of FAK protein was then monitored by quantitation of degree of binding of an antibody that recognizes only the phosphorylated FAK at Y397 within the captured protein.
Reagents Provided in Biosource FAK [pY397]
Cultures of U87MG cells growing in MEM (Earles) containing non-essential amino acids, sodium pyruvate (1 mM), […] (1%) and 10% fetal bovine serum were detached by trypsin-EDTA and suspended in cell growth medium. Cells were then plated onto fibronectin (600 ng/well)-coated 96-well flat bottom plates at 1.7×10^4 cells per well in 60 uL cell growth medium and incubated overnight at 37° C. in a CO2 incubator.
Compound dilutions were prepared from 10 mM DMSO stocks by dilution in cell growth medium, the final concentration of DMSO in the assay being 0.6%. […] The cells were then incubated with compounds at 37° C. for 2 h. The medium was removed by aspiration and cells were lysed by addition of 20 uL of ice-cold cell lysis buffer per well. The plates were kept on ice for 20 min and 50 uL of standard diluent was added to each well. 50 uL of cell lysate from each well was transferred to respective wells in an assay plate and 50 uL of detection antibody was added to all wells except H1-H6 which were no antibody control wells. Capture assay plates were incubated overnight in a cold room.
Following incubation of the cell lysates and detection antibodies in the ELISA plate, the wells were washed 4 times with 120 uL of wash buffer (1×), then 100 uL of diluted HRP conjugated antibody (1:100 dil in diluent) was added to each well, and the plate was incubated at RT for 30 min. The wells were then washed for 4 times with 120 uL of wash buffer (1×) and 100 uL of chromogen was added to each well and incubated in the dark at RT for 5-10 min. 100 uL of stop solution was added to each well and the absorbance measured at 450 nm, 0.1 s.
Comparison of the assay signals obtained in the presence of compound with those of positive and negative controls (cells with no compound and no detection antibody being added), allows degree of inhibition of phospho-FAK [Y397] to be determined over a range of compound concentrations. […] The assay as described above was modified to determine the effect of inclusion of 50% (v/v) mouse or human plasma. In this assay, the compound plate was prepared as 2× concentration in 100 uL of 100% mouse or human plasma, and 60 uL of this was added to 60 uL of culture medium and incubated at 37° C. incubator for 2 h. The rest of the assay was carried out as described above.

Assay [1] concerns the target T2, GST-tagged full-length FAK enzyme (PTK2) (Homo sapiens, UniProt Q05397).
T2 construct: GST-tagged full-length FAK enzyme (PTK2, Invitrogen PV4085); GST; purchased Invitrogen PV4085
Put plainly: Biochemical Omnia Assay (FAK). The method, then:
Biochemical Omnia Assay Protocol
The Omnia Assay (Invitrogen) has been optimized for GST-tagged full-length FAK enzyme (PTK2, Invitrogen PV4085).
All compound concentrations were assayed in duplicate. Initial compound dilutions were prepared at 100× concentration in 100% DMSO from a 10 mM stock solution. Compounds were further diluted 1:25 in assay buffer resulting in a 4× concentrated solution.
In running the assay, 5 μL of the above 4× concentrated compound solution (or 4% DMSO for positive controls) was added to the assay plate followed by 5 μL of a solution containing peptide (40 μM) and ATP (200 μM) in assay buffer. The reaction was initiated by the addition of 10 μL of FAK (50 nM) in assay buffer, or assay buffer alone for negative controls. The increase in fluorescence due to peptide phosphorylation was monitored continuously as a function of time using a Spectramax M5 plate reader (Molecular Devices) equipped with SoftMax Pro 5.2 software.
IC50 values were determined from the slopes of the linear progress curves by non-linear curve-fitting using GraphPad Prism 5 (GraphPad Software, Inc.).

Setting [2] is: 50% (v/v) human plasma, mean IC50, read-out: FAK Activity Mechanistic (U87MG) HP.
Setting [3] is: 50% (v/v) mouse plasma, mean IC50, read-out: FAK Activity Mechanistic (U87MG) MP.
The mark [4] stands for this setting: no plasma present, mean IC50, read-out: FAK Activity Mechanistic (U87MG) NP.
Setting [5] is: mean IC50, [ATP] = 50uM, read-out: FAK Activity Biochemical OMNIA, [ATP] = 50uM.

T2 sequence (Q05397 whole entry): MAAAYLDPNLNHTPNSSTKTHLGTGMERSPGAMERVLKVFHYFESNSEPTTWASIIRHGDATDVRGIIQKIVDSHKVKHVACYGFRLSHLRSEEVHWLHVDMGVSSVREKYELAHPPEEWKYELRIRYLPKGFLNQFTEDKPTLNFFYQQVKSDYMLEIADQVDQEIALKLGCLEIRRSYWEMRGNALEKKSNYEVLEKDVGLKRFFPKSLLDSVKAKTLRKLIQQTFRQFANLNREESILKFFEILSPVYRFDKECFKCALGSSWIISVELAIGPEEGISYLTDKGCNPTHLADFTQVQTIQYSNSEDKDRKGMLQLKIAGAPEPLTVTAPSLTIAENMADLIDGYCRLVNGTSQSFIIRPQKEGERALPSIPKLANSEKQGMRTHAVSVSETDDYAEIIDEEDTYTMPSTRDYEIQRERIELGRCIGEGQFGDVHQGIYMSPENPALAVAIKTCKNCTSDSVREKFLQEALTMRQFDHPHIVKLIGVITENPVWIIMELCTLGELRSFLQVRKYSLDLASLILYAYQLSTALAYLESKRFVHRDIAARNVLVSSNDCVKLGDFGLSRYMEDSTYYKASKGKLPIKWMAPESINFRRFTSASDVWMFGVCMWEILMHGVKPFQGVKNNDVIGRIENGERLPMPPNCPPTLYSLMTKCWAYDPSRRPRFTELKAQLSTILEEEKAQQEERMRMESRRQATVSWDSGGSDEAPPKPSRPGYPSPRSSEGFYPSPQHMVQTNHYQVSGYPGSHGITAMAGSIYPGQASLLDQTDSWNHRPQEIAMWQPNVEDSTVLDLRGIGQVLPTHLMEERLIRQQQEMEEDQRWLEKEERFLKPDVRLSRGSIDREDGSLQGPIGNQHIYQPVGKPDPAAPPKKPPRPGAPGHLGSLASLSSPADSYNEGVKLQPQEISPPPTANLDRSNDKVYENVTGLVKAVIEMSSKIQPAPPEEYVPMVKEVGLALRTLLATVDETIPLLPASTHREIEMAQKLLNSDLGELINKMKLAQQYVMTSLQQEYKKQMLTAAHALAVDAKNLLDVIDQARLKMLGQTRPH
T1 sequence (Q05397 whole entry): as above

As to `CCOP1(=O)Cc2ccc(c(OC)c2)Nc2ncc(C(F)(F)F)c(n2)Nc2ccc(cc2C(=O)NOC)-c2cnn(c2)CCCO1` (racemic) [Example 26], the IC50 at FAK (setting [2]) was under 400 nM; at FAK (setting [3]), 400 to 4000 nM; on FAK (setting [4]), under 400 nM; in assay [1] (setting [5]) it was under 400 nM.

With `CCOP1(=O)Cc2ccc(c(OC)c2Cl)Nc2ncc(C(F)(F)F)c(n2)Nc2ccc(nc2C(=O)NC)-c2cnn(c2)CCCO1` (racemic) [Example 54], the IC50 at FAK (setting [2]) was 400 to 4000 nM; on FAK (setting [4]) it was under 400 nM; in assay [1] it was under 400 nM.

As to `CCOP1(=O)Cc2ccc(c(OC)c2)Nc2ncc(C(F)(F)F)c(n2)Nc2ccc(nc2C(=O)NC)-c2cnn(c2)CC2(COC2)CO1` (single isomer, unassigned) [Example 44A], the IC50 (at FAK (setting [2]); on FAK (setting [4]); in assay [1]) was under 400 nM in each case.

Consider `CCOP1(=O)Cc2ccc(cc2)Nc2ncc(C(F)(F)F)c(n2)Nc2ccc(cc2C(=O)N(C)C)-c2cnn(c2)CCCO1` (racemic) [Example 11], for which the IC50 on FAK (setting [2]) is 400 to 4000 nM; on FAK (setting [4]), under 400 nM; in assay [1] it was under 400 nM.

Regarding `CCOP1(=O)Cc2ccc(c(OC)c2)Nc2ncc(C(F)(F)F)c(n2)Nc2ccc(nc2C(=O)NC)-c2cn(nc2C)CCCO1` (single isomer, unassigned) [Example 34A], the IC50 on FAK (setting [2]) is 400 to 4000 nM; on FAK (setting [4]), under 400 nM; in assay [1] (setting [5]), under 400 nM.

For the molecule `CCOP1(=O)Cc2ccc(c(OC)c2)Nc2ncc(C(F)(F)F)c(n2)Nc2ccc(nc2C(=O)NC)-c2cn(nc2Cl)CCCO1` (racemic) [Example 49], the IC50 at FAK (setting [2]) is under 400 nM; on FAK (setting [3]) it was 400 to 4000 nM; on FAK (setting [4]), under 400 nM; in assay [1] (setting [5]), under 400 nM.

Turning to `CCOP1(=O)Cc2ccc(cc2)Nc2ncc(C(F)(F)F)c(n2)Nc2ccc(nc2C(=O)NC)-c2cnn(c2)CCCO1` (racemic) [Example 13], the IC50 (at FAK (setting [2]); on FAK (setting [4]); in assay [1] (setting [5])) was under 400 nM each time.

`CCNC(=O)c1nc2ccc1Nc1nc(ncc1C(F)(F)F)Nc1ccc(cc1OC)CP(=O)(OCC)OCC1(COC1)Cn1cc-2cn1` (single isomer, unassigned) [Example 45A]: the IC50 on FAK (setting [2]) was 400 to 4000 nM; on FAK (setting [4]), under 400 nM; in assay [1], under 400 nM.

On to `CCCP1(=O)Cc2ccc(c(OC)c2)Nc2ncc(C(F)(F)F)c(n2)Nc2ccc(nc2C(=O)NC)-c2cnn(c2)CCCO1` (single isomer, unassigned) [Example 37A], for which the IC50 on FAK (setting [2]) was 400 to 4000 nM; on FAK (setting [3]), 400 to 4000 nM; on FAK (setting [4]), under 400 nM; in assay [1] (setting [5]), under 400 nM.

Turning to `CCOP1(=O)Cc2cc(OC)c(cc2Cl)Nc2ncc(C(F)(F)F)c(n2)Nc2ccc(nc2C(=O)NC)-c2cnn(c2)CCCO1` (racemic) [Example 56], the IC50 was over 4000 nM on FAK (setting [2]), 400 to 4000 nM at FAK (setting [3]), under 400 nM on FAK (setting [4]) and under 400 nM in assay [1].

In the case of `CCOP1(=O)Cc2cc(OC)c(cc2Cl)Nc2ncc(C(F)(F)F)c(n2)Nc2ccc(nc2C(=O)NC)-c2cnn(c2)CCCO1` (single isomer, unassigned) [Example 56A], the IC50 on FAK (setting [2]) was over 4000 nM; at FAK (setting [3]), 400 to 4000 nM; at FAK (setting [4]), under 400 nM; in assay [1], under 400 nM.

For `CCOP1(=O)Cc2ccc(c(F)c2)Nc2ncc(C(F)(F)F)c(n2)Nc2ccc(nc2C(=O)NC)-c2cnn(c2)CCCO1` (racemic) [Example 22], the IC50 is under 400 nM at FAK (setting [2]), 400 to 4000 nM on FAK (setting [4]) and under 400 nM in assay [1].

With `CCOP1(=O)Cc2ccc(cc2)Nc2ncc(C(F)(F)F)c(n2)Nc2ccc(nc2C(=O)NC)-c2cnn(c2)CCCCO1` (centres unmarked) [Example 16, 11-ethoxy-N-methyl-21-(trifluoromethyl)-10-oxa-4,5,17,19,23,26,29-heptaaza-11-phosphapentacyclo[22.2.2.2^13,16.1^2,5.1^18,22]dotriaconta-1(26),2(32),3,13,15,18(29),19,21,24,27,30-undecaene-25-carboxamide 11-oxide], the IC50 (on FAK (setting [2]); on FAK (setting [4]); in assay [1]) was under 400 nM throughout.

The values above are taken from patent US9133224B2, “Macrocyclic kinase inhibitors” (OSI Pharmaceuticals, LLC, priority 2010, dated 2015).
